The values below come from US11034725B2, “Compositions and methods for treating cardiovascular disease” (Genentech, Inc., priority 2016, dated 2021).

Read-outs that look alike come from different tables or passages of the source. Bridge positions count the residues as written; N and C are the ends. Square brackets hold non-standard residues; d marks the D form. Peptide text beside a SMILES is read from it. * marks the point of attachment. hArg = N=C(N)NCCCC[C@H](N)C(=O)O; Pentanoyl = CCCCC(=O)*; Ahp = NCCCCCCC(=O)O

For experiment [1], the target named is PCSK9 (Homo sapiens, UniProt Q8NBP7). In words: PCSK9/EGF(A) TR-FRET binding assay. The note with it: for IC50: TR-FRET, read-out: PCSK9/EGF(A) IC50.
Experiment [2] has as its target T1, PCSK9Δhelix (Homo sapiens, UniProt Q8NBP7).
T1 construct: Human PCSK9 construct M1-Q692 with an engineered TEV site (residue deletion Y166, R167); made in house; host or cells: CHO
In words: PCSK9Δhelix/Ab20 TR-FRET binding assay. The conditions noted are these: for IC50: TR-FRET, read-out: PCSK9Δhelix/Ab20 IC50.

Experiment [3] relates to His-EGF(A)-Fc. Briefly: His-EGF(A)-Fc TR-FRET counterscreen.
Setting [4] is: Table 8D, disulfide-cyclized extension peptides.
The mark [5] stands for this setting: TR-FRET counterscreen, Table 8D, * = some inhibition at highest concentrations, not sufficient to fit an IC50.
Where [6] appears, read: TR-FRET counterscreen, Table 8E, additional compounds.

Sequence of PCSK9 (Q8NBP7 153-692): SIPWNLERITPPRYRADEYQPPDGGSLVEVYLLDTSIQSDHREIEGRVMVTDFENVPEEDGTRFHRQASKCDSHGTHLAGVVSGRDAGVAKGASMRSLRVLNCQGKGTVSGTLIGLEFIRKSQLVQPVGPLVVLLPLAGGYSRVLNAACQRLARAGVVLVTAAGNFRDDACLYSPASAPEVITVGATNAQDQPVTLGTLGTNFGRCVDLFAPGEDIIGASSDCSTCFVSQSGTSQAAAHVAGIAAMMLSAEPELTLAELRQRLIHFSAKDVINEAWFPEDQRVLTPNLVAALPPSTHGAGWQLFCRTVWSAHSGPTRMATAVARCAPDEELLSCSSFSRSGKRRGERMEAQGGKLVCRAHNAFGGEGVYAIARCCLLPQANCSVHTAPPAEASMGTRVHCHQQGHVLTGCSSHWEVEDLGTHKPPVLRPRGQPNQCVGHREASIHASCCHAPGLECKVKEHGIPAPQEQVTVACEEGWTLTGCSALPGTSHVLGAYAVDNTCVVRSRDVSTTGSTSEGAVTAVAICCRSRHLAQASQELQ
Sequence of PCSK9 (Q8NBP7 31-152 partner limits assumed): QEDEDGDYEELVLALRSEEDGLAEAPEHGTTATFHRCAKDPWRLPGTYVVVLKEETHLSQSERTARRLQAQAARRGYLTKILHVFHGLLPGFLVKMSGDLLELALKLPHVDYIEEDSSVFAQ
T1 sequence (Q8NBP7 with tags, fused parts or gaps limits assumed): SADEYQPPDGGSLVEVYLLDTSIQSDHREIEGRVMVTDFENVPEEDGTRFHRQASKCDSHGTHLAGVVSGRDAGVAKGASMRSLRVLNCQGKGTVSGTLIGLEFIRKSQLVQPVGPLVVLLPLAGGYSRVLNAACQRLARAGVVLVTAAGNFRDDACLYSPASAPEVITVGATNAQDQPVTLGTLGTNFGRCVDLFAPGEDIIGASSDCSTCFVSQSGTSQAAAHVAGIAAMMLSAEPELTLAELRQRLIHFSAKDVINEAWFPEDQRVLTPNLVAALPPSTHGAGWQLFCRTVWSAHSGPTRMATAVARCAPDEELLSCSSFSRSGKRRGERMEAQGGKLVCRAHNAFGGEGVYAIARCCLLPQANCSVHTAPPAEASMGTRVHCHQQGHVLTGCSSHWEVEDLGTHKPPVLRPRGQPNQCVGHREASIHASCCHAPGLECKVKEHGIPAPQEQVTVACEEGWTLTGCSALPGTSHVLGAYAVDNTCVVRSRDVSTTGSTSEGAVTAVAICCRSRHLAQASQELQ
T1 sequence (Q8NBP7 31-152 partner limits assumed): as the sequence (Q8NBP7 31-152 partner limits assumed) above

In the case of `CC[C@H](C)[C@@H]1NC(=O)[C@H](CCCNC(=N)N)NC(=O)[C@H](CCC(N)=O)NC(=O)[C@H](CC(C)C)NC(=O)[C@H](CC(N)=O)NC(=O)[C@H](Cc2c[nH]c3ccccc23)NC(=O)[C@@H]2CCCN2C(=O)[C@H](CC(C)C)NC(=O)[C@H](CCCNC(=N)N)NC(=O)[C@@H](NC(C)=O)CSSC[C@@H](C(N)=O)NC(=O)[C@@H]2CCCN2C(=O)[C@H](C)NC(=O)CNC1=O` [Compound 69] (Ac-CRLPWNLQRIGAPC-NH2; disulfide 1-14), the values for the IC50 in experiment [1] (setting [4]), in experiment [2] (setting [4]) and in experiment [3] (setting [5]) were above 50 µM, 6.64 µM and above 50 µM, respectively.

With Ac-DLMPWNLVRIGL-NH2 [Compound 47], the IC50 is above 50 µM in experiment [1] (Example 7); 12.6 µM in experiment [2] (Example 7); above 50 µM in experiment [3] (counterscreen, Example 7).

With `CC[C@H](C)[C@@H]1NC(=O)[C@H](CCCNC(=N)N)NC(=O)[C@H](CCCCN)NC(=O)[C@H](CC(C)C)NC(=O)[C@H](CC(N)=O)NC(=O)[C@H](Cc2c[nH]c3ccccc23)NC(=O)[C@H](CC(C)C)NC(=O)[C@@H](NC(=O)[C@H](Cc2ccccc2)NC(C)=O)CSSC[C@@H](C(=O)N[C@@H](CCC(=O)O)C(=O)N[C@@H](Cc2ccc(O)cc2)C(N)=O)NC(=O)[C@H](CCC(N)=O)NC(=O)[C@H](CO)NC(=O)CNC1=O` [Compound 95] (Ac-FCLWNLKRIGSQCEY-NH2; disulfide 2-13), the IC50 in experiment [1] (setting [4]) was above 50 µM; in experiment [2] (setting [4]), 12.7 µM; in experiment [3] (setting [5]) it was above 50 µM.

On to Ac-DLMPANLVRIGLLR-NH2 [Compound 41], for which the IC50 is above 50 µM in experiment [1] (Example 7); above 49.5 µM in experiment [2] (Example 7); above 50 µM in experiment [3] (counterscreen, Example 7).

For `CC[C@H](C)[C@@H]1NC(=O)[C@H](CCCNC(=N)N)NC(=O)[C@H](CCC(N)=O)NC(=O)[C@H](CC(C)C)NC(=O)[C@H](CC(N)=O)NC(=O)[C@H](Cc2c[nH]c3ccccc23)NC(=O)[C@@H]2CCCN2C(=O)[C@H](CC(C)C)NC(=O)[C@H](CCCNC(=N)N)NC(=O)[C@@H](NC(C)=O)CSSC[C@@H](C(N)=O)NC(=O)CCCCCCNC1=O` [Compound 121] (Ac-CRLPWNLQRI[Ahp]C-NH2; disulfide 1-12), the IC50 in experiment [1] (setting [4]) is above 50 µM; in experiment [2] (setting [4]) it was 40.3 µM; in experiment [3] (setting [5]), above 50 µM. In addition, in experiment [2], the “inhibition in the PCSK9Δhelix/Ab20 binding assay” value was “weak but detectable inhibition”.

For `CCCCC(=O)N[C@@H](Cc1c[nH]c2ccccc12)C(=O)N[C@@H](CC(N)=O)C(=O)N[C@@H](CC(C)C)C(=O)N[C@H](C(=O)N[C@@H](CCCNC(=N)N)C(=O)N[C@H](C(=O)NCC(=O)N[C@@H](CC(C)C)C(=O)N[C@@H](CC(=O)O)C(=O)N[C@@H](CCCNC(=N)N)C(N)=O)[C@@H](C)CC)C(C)C` [Compound 178] (Pentanoyl-WNLVRIGLDR-NH2), the IC50 was at least 50 µM in experiment [1] (Table 8E, additional compounds); 18 µM in experiment [2] (Table 8E, additional compounds); at least 50 µM in experiment [3] (setting [6]).

On to `CCCCC(=O)N[C@@H](Cc1c[nH]c2ccccc12)C(=O)N[C@@H](CC(N)=O)C(=O)N[C@@H](CC(C)C)C(=O)N[C@H](C(=O)N[C@@H](CCCCNC(=N)N)C(=O)N[C@H](C(=O)NCC(=O)N[C@@H](CC(C)C)C(=O)N[C@H](C(=O)N[C@@H](CCCNC(=N)N)C(N)=O)[C@@H](C)O)[C@@H](C)CC)C(C)C` [Compound 234, n-BuC(O)-WNLV(homoR)IGLTR-NH2] (Pentanoyl-WNLV[hArg]IGLTR-NH2), for which the IC50 in experiment [1] (Table 8E, additional compounds) was at least 50 µM; in experiment [2] (Table 8E, additional compounds) it was 1.4 µM; in experiment [3] (setting [6]), at least 50 µM.

Take `CC[C@H](C)[C@@H]1NC(=O)[C@H](CCCNC(=N)N)NC(=O)[C@H](CCCCN)NC(=O)[C@H](CC(C)C)NC(=O)[C@H](CC(N)=O)NC(=O)[C@H](Cc2c[nH]c3ccccc23)NC(=O)[C@@H](NC(=O)CCCCCCNC(=O)[C@@H](NC(=O)[C@H](Cc2c[nH]c3ccccc23)NC(=O)[C@H](CC(=O)O)NC(=O)[C@H](CC(C)C)NC(=O)[C@H](Cc2ccc(O)cc2)NC(=O)[C@H](CCC(=O)O)NC(=O)[C@H](CCC(=O)O)NC(=O)[C@H](Cc2c[nH]c3ccccc23)NC(=O)[C@H](CO)NC(=O)[C@@H](NC(=O)[C@H](Cc2ccccc2)NC(=O)[C@@H](NC(=O)[C@@H](NC(C)=O)[C@@H](C)O)C(C)C)[C@@H](C)O)C(C)C)CSSC[C@@H](C(N)=O)NC(=O)CNC(=O)[C@H](CCC(N)=O)NC(=O)[C@H](CO)NC(=O)CNC1=O` [Compound 24]: the “inhibition in the PCSK9/EGF(A) binding assay” value in experiment [1] was “maintained potency”. In experiment [2], the “inhibition in the PCSK9Δhelix/Ab20 binding assay” value was “maintained potency”. The IC50 in experiment [2] (Example 7) is 0.001 µM; in experiment [3] (counterscreen, Example 7), above 50 µM.

For `CC[C@H](C)[C@@H]1NC(=O)[C@H](CCCNC(=N)N)NC(=O)[C@H](CCC(N)=O)NC(=O)[C@H](CC(C)C)NC(=O)[C@H](CC(N)=O)NC(=O)[C@H](Cc2c[nH]c3ccccc23)NC(=O)[C@@H]2CCCN2C(=O)[C@H](CC(C)C)NC(=O)[C@H](CCCNC(=N)N)NC(=O)[C@@H](NC(C)=O)CSSC[C@@H](C(N)=O)NC(=O)[C@H](C)NC(=O)[C@H](CC(C)C)NC(=O)CNC1=O` [Compound 68] (Ac-CRLPWNLQRIGLAC-NH2; disulfide 1-14), the results for the IC50 in experiment [1] (setting [4]), in experiment [2] (setting [4]) and in experiment [3] (setting [5]) were above 50 µM, 0.939 µM and above 50 µM, respectively.

With `CCCCC(=O)N[C@@H](Cc1c[nH]c2ccccc12)C(=O)N[C@@H](CC(N)=O)C(=O)N[C@@H](CC(C)C)C(=O)N[C@H](C(=O)N[C@@H](CCCNC(=N)N)C(=O)N[C@H](C(=O)NCC(=O)N[C@@H](CC(C)C)C(=O)NCC(=O)N[C@@H](CCCNC(=N)N)C(N)=O)[C@@H](C)CC)C(C)C` [Compound 179] (Pentanoyl-WNLVRIGLGR-NH2), the IC50 in experiment [1] (Table 8E, additional compounds) was at least 50 µM; in experiment [2] (Table 8E, additional compounds), 11 µM; in experiment [3] (setting [6]) it was at least 50 µM.

As to `CCCCC(=O)N[C@@H](Cc1c[nH]c2ccccc12)C(=O)N[C@@H](CC(N)=O)C(=O)N[C@@H](CC(C)C)C(=O)N[C@H](C(=O)N[C@@H](CCCNC(=N)N)C(=O)N[C@H](C(=O)NCC(=O)N[C@@H](CC(C)C)C(=O)N[C@@H](C)C(=O)N[C@@H](CCCNC(=N)N)C(N)=O)[C@@H](C)CC)C(C)C` [Compound 180] (Pentanoyl-WNLVRIGLAR-NH2), the IC50 in experiment [1] (Table 8E, additional compounds) is at least 50 µM; in experiment [2] (Table 8E, additional compounds) it was 12 µM; in experiment [3] (setting [6]), at least 50 µM.

For the compound `CCCCC(=O)N[C@@H](Cc1c[nH]c2ccccc12)C(=O)N[C@@H](CC(N)=O)C(=O)N[C@@H](CC(C)C)C(=O)N[C@H](C(=O)N[C@@H](CCCCNC(=N)N)C(=O)N[C@H](C(=O)NCC(=O)N[C@@H](CC(C)C)C(=O)N[C@H](C(=O)N[C@@H](CCCNC(=N)N)C(=O)O)[C@@H](C)O)[C@@H](C)CC)C(C)C` [Compound 235, n-BuC(O)-WNLV(homoR)IGLTR] (Pentanoyl-WNLV[hArg]IGLTR-OH), the IC50 in experiment [1] (Table 8E, additional compounds) was at least 50 µM; in experiment [2] (Table 8E, additional compounds), 2.7 µM; in experiment [3] (setting [6]), at least 50 µM.

As for Ac-DLMPWNLVAIGLLR-NH2 [Compound 59], the IC50 in experiment [1] (Example 7) is above 50 µM; in experiment [2] (Example 7), above 49.5 µM; in experiment [3] (counterscreen, Example 7), above 50 µM.

Take “Ac-TVFTSWEEYLDWVGSGKLWNLGRV-NH2 [Compound 1]”: the “inhibition in the PCSK9/EGF(A) binding assay” value in experiment [1] is on record as “comparable activity to Pep2-8”. Also, in experiment [2], the “inhibition in the PCSK9Δhelix/Ab20 binding assay” value is “superior activity”. The IC50 in experiment [2] (Example 7) is 0.021 µM; in experiment [3] (counterscreen, Example 7), above 50 µM.
